Among the test systems are EKVX NSCLC; HCC-2998 colon; MCF7 breast; NCI-H226 lung; OVCAR-5 ovarian; SNB-75 CNS; T-47D breast; SR leukemia; DMS 114 small cell lung; NCI-H522 lung; XF 498 CNS.
Common to all, as to assay: inhibition of tumour cell growth, NCI panel, 48 h

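Step 1: Grow cells in 96-well plates. Step 2: Expose to compound for 48 hours at 5 concentrations. Step 3: Interpolate endpoints linearly; if unreached, use highest concentration. GI50 marks 50% less growth. Definition used: TGI = concentration required for complete inhibition of growth.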

Take `CCc1cc(=O)n(/C(C)=C/c2ccccc2)n1C`: the TGI in the assay with EKVX NSCLC, in the assay with HCC-2998 colon, in the assay on MCF7 breast, in the assay on NCI-H226 lung, with OVCAR-5 ovarian and with SNB-75 CNS was over 100 µM each time. Besides, the TGI in the assay on T-47D breast is over 100 µM.

For the molecule `CCOC(=O)c1csc(NC(=O)CCCC#N)n1`, the TGI with HCC-2998 colon, in the assay on MCF7 breast, in the assay on NCI-H226 lung, in the assay on OVCAR-5 ovarian, with SNB-75 CNS and in the assay on SR leukemia was over 100 µM throughout. Also, the TGI in the assay on T-47D breast is over 100 µM.

As to `c1ccc([P+](Cc2csnn2)(c2ccccc2)c2ccccc2)cc1`, the TGI in the assay on DMS 114 small cell lung, in the assay on EKVX NSCLC, with HCC-2998 colon, in the assay with NCI-H226 lung, with NCI-H522 lung and in the assay on OVCAR-5 ovarian was over 100 µM throughout. Also, the TGI in the assay with SNB-75 CNS, in the assay on SR leukemia and with XF 498 CNS was over 100 µM throughout.

`CCOC(=O)C(C)NC(=O)N(C)C12CC3CC(CC(C3)C1)C2` (stereo not given): the TGI in the assay with DMS 114 small cell lung was 312 µM; with EKVX NSCLC, over 500 µM; with HCC-2998 colon, over 500 µM; in the assay with MCF7 breast it was 395 µM; in the assay on NCI-H226 lung, 489 µM; in the assay with NCI-H522 lung, over 451 µM. Moreover, the TGI was over 500 µM in the assay on OVCAR-5 ovarian, 227 µM with SNB-75 CNS and 453 µM with XF 498 CNS.

In the case of `O=C1c2c(c3c4ccc(Br)cc4oc3c3[nH]c4ccccc4c23)C(=O)N1O`, the GI50 in the assay with HCC-2998 colon was 1.94 µM; with MCF7 breast, 1.12 µM; in the assay with NCI-H226 lung it was 2.34 µM; in the assay on NCI-H522 lung, 1.07 µM; with T-47D breast, 1.92 µM. Besides, the TGI in the assay on HCC-2998 colon, in the assay with MCF7 breast, in the assay with NCI-H226 lung, with NCI-H522 lung and in the assay with T-47D breast was over 100 µM throughout.

Turning to `CCC1(CC)C(=O)NC(=S)N=C1N`, the TGI in the assay with DMS 114 small cell lung, in the assay on EKVX NSCLC, in the assay with NCI-H226 lung, in the assay on NCI-H522 lung, with OVCAR-5 ovarian and with SNB-75 CNS was over 100 µM each time. In the assay with XF 498 CNS, this molecule registered a TGI of over 100 µM.

For the molecule `COc1ccc(CN2C(=O)C(=O)N(C)C2=O)c2ccccc12`, the TGI with EKVX NSCLC, in the assay on HCC-2998 colon, in the assay on MCF7 breast, with NCI-H226 lung, with NCI-H522 lung and in the assay with OVCAR-5 ovarian was over 10 µM in each case. The TGI with SNB-75 CNS, in the assay on SR leukemia and with T-47D breast was over 10 µM in each case.

Consider `CCOC(=O)C1=C(C)NC(=O)N([N+](=O)[O-])C1c1ccccc1C(F)(F)F` (stereo not given), for which the TGI in the assay on MCF7 breast, with NCI-H226 lung, with OVCAR-5 ovarian, with SR leukemia and with T-47D breast was over 100 µM in each case.

In the case of `O=C(NN1C(=O)CSC1c1ccc(Cl)c(Cl)c1)c1ccncc1` (stereo not given), the TGI in the assay on DMS 114 small cell lung, in the assay on EKVX NSCLC, in the assay with HCC-2998 colon, in the assay with NCI-H522 lung, in the assay with OVCAR-5 ovarian and in the assay with SNB-75 CNS was over 100 µM in each case. In the assay with XF 498 CNS, this molecule gave a TGI of over 100 µM.

With `Cc1cc(C)nc(NS(=O)(=O)c2ccc(Nc3c4ccccc4nc4c(C(=O)NCCO)cccc34)cc2)n1`, the TGI is over 100 µM with EKVX NSCLC; 27.8 µM in the assay with HCC-2998 colon; 42.8 µM in the assay on MCF7 breast; 30 µM in the assay on NCI-H522 lung; 91.7 µM in the assay with OVCAR-5 ovarian; 21.6 µM in the assay on SNB-75 CNS. Further, the TGI is 56.1 µM with SR leukemia and over 100 µM in the assay with T-47D breast.

Consider `O=c1c2cc3c(=O)n(CCc4ccccc4CO)c(=O)c3cc2c(=O)n1CCc1ccccc1CO`, for which the TGI in the assay on DMS 114 small cell lung, in the assay on NCI-H226 lung, in the assay with NCI-H522 lung, in the assay with SNB-75 CNS and in the assay with XF 498 CNS was over 100 µM in each case.

Turning to `COc1cc(CCCOC2OC(COC3OCC(O)C(O)C3O)C(O)C(O)C2O)cc2cc(-c3ccc4c(c3)OCO4)oc12` (stereo not given), the TGI in the assay on DMS 114 small cell lung was over 175 µM; with EKVX NSCLC, over 175 µM; in the assay with HCC-2998 colon, over 98.4 µM; in the assay on MCF7 breast, over 175 µM; with NCI-H226 lung it was over 175 µM; in the assay on NCI-H522 lung, over 175 µM. Besides, the TGI with OVCAR-5 ovarian, in the assay with SNB-75 CNS and in the assay on XF 498 CNS was over 175 µM in each case.

On to `Nc1nc(Nc2ccc(OCc3cccc(F)c3)cc2)c2c(n1)[nH]c1ccc(O)cc12`, for which the GI50 in the assay with EKVX NSCLC was 8.86 µM; in the assay on HCC-2998 colon, 3.46 µM; in the assay on MCF7 breast it was 2.87 µM; in the assay on NCI-H226 lung it was 24.2 µM; in the assay on NCI-H522 lung, 1.99 µM; in the assay on OVCAR-5 ovarian it was 3.38 µM. The GI50 in the assay with SNB-75 CNS was 1.53 µM; in the assay on SR leukemia, 2.13 µM; in the assay with T-47D breast, 1.79 µM. The TGI was found to be 29.4 µM with EKVX NSCLC; 13.6 µM in the assay with HCC-2998 colon; 11.8 µM in the assay with MCF7 breast; 54.6 µM in the assay on NCI-H226 lung; 4.67 µM with NCI-H522 lung; 14.5 µM with OVCAR-5 ovarian. The TGI with SNB-75 CNS was 3.01 µM; in the assay with SR leukemia, 5.87 µM; in the assay with T-47D breast it was 4.5 µM.

The values are drawn from PubChem BioAssay (NCI).
